Reference: patent publication US5721207A, “Method for treatment of pain” (Innapharma, Inc., priority 1995, dated 1998)

System: rat
Assay: Rat hot plate analgesiometric test, dose response of single intrathecal elcatonin (Example 8)
Format: in vivo
Experimental: The doses tested were 0.2, 0.8, 1.6, 2.4, and 3.6 IU/kg. The desired dose was injected in a volume of 37.5 μL/kg, followed by a catheter wash-out with 10 μL saline, via the intrathecal route.
A total of 113 adult male rats, of weights of 350 g to 400 g, were used. Intrathecal catheters were surgically implanted as described in Example 4.
Data were analyzed for statistical significance, and a point estimate (mean and standard deviation) are used to analyze analgesic activity for each dose of the drug for a selected time period. Nonparametric statistics were calculated to address the level of significance of any difference between control and test group.

## [Des-Cys^1,ASU^7 ]-Calcitonin, Eel [Elcatonin]
0.2 IU/kg intrathecal (lowest dose tested)
  antinociceptive response (statistics): did not produce a statistically significant response
0.2 IU/kg intrathecal single, 0 hr (baseline)
  Hot Plate Latency (Mean ± SEM): 10.6 ± 0.8 s
0.2 IU/kg intrathecal single, 0.25 hr after administration
  Hot Plate Latency (Mean ± SEM): 13.0 ± 1.1 s
0.2 IU/kg intrathecal single, 0.5 hr after administration
  Hot Plate Latency (Mean ± SEM): 12.9 ± 0.7 s
0.2 IU/kg intrathecal single, 1 hr after administration
  Hot Plate Latency (Mean ± SEM): 12.7 ± 0.9 s
0.2 IU/kg intrathecal single, 3 hr after administration
  Hot Plate Latency (Mean ± SEM): 13.1 ± 0.7 s
0.2 IU/kg intrathecal single, 6 hr after administration
  Hot Plate Latency (Mean ± SEM): 12.1 ± 0.5 s
0.2 IU/kg intrathecal single, 24 hr after administration
  Hot Plate Latency (Mean ± SEM): 10.8 ± 0.7 s
0.8 IU/kg intrathecal single, 0 hr (baseline)
  Hot Plate Latency (Mean ± SEM): 9.8 ± 0.8 s
0.8 IU/kg intrathecal single, 0.25 hr after administration
  Hot Plate Latency (Mean ± SEM): 15.1 ± 1.5 s
0.8 IU/kg intrathecal single, 0.5 hr after administration
  Hot Plate Latency (Mean ± SEM): 15.0 ± 1.5 s
0.8 IU/kg intrathecal single, 1 hr after administration
  Hot Plate Latency (Mean ± SEM): 15.2 ± 1.3 s
0.8 IU/kg intrathecal single, 3 hr after administration
  Hot Plate Latency (Mean ± SEM): 20.0 ± 2.8 s
0.8 IU/kg intrathecal single, 6 hr after administration
  Hot Plate Latency (Mean ± SEM): 12.3 ± 1.0 s
0.8 IU/kg intrathecal single, 24 hr after administration
  Hot Plate Latency (Mean ± SEM): 11.7 ± 1.0 s
0.8 and 1.6 IU/kg intrathecal
  antinociceptive response (statistics): significant antinociception
1.6 IU/kg intrathecal single, 0 hr (baseline)
  Hot Plate Latency (Mean ± SEM): 9.2 ± 0.5 s
1.6 IU/kg intrathecal single, 0.25 hr after administration
  Hot Plate Latency (Mean ± SEM): 16.4 ± 1.2 s
1.6 IU/kg intrathecal single, 0.5 hr after administration
  Hot Plate Latency (Mean ± SEM): 16.0 ± 1.0 s
1.6 IU/kg intrathecal single, 1 hr after administration
  Hot Plate Latency (Mean ± SEM): 16.4 ± 1.1 s
1.6 IU/kg intrathecal single, 3 hr after administration
  Hot Plate Latency (Mean ± SEM): 15.1 ± 0.9 s
1.6 IU/kg intrathecal single, 6 hr after administration
  Hot Plate Latency (Mean ± SEM): 13.6 ± 0.8 s
1.6 IU/kg intrathecal single, 24 hr after administration
  Hot Plate Latency (Mean ± SEM): 10.9 ± 0.4 s
2.4 IU/kg intrathecal single, 0 hr (baseline)
  Hot Plate Latency (Mean ± SEM): 9.0 ± 0.7 s
2.4 IU/kg intrathecal single, 0.25 hr after administration
  Hot Plate Latency (Mean ± SEM): 20.0 ± 1.5 s
2.4 IU/kg intrathecal single, 0.5 hr after administration
  Hot Plate Latency (Mean ± SEM): 20.1 ± 1.9 s
2.4 IU/kg intrathecal single, 1 hr after administration
  Hot Plate Latency (Mean ± SEM): 19.5 ± 1.8 s
2.4 IU/kg intrathecal single, 3 hr after administration
  Hot Plate Latency (Mean ± SEM): 21.8 ± 2.1 s
2.4 IU/kg intrathecal single, 6 hr after administration
  Hot Plate Latency (Mean ± SEM): 12.6 ± 1.2 s
2.4 IU/kg intrathecal single, 24 hr after administration
  Hot Plate Latency (Mean ± SEM): 10.3 ± 1.2 s
2.4 and 3.6 IU/kg intrathecal
  antinociceptive response (statistics): strong antinociception
3.6 IU/kg intrathecal single, 0 hr (baseline)
  Hot Plate Latency (Mean ± SEM): 10.4 ± 0.9 s
3.6 IU/kg intrathecal single, 0.25 hr after administration
  Hot Plate Latency (Mean ± SEM): 19.4 ± 1.6 s
3.6 IU/kg intrathecal single, 0.5 hr after administration
  Hot Plate Latency (Mean ± SEM): 21.4 ± 1.8 s
3.6 IU/kg intrathecal single, 1 hr after administration
  Hot Plate Latency (Mean ± SEM): 23.5 ± 2.5 s
3.6 IU/kg intrathecal single, 3 hr after administration
  Hot Plate Latency (Mean ± SEM): 19.5 ± 1.0 s
3.6 IU/kg intrathecal single, 6 hr after administration
  Hot Plate Latency (Mean ± SEM): 15.7 ± 1.3 s
3.6 IU/kg intrathecal single, 24 hr after administration
  Hot Plate Latency (Mean ± SEM): 10.2 ± 1.0 s
intrathecal, 0.2-3.6 IU/kg
  dose relation of hot plate latencies: increased hot plate latencies in a dose-related fashion
  onset of antinociception after injection: ≤ 15 min
intrathecal, all doses used
  duration of antinociception post-injection: at least 6 hours
  time of peak antinociception: 30 to 60 min
intrathecal, most tests
  hot plate latency by 24 hr post-injection: returned to baseline
intrathecal, three higher doses
  antinociception at 6 hrs after injection: Significant antinociception was also apparent
Rat hot plate
  antinociceptive results, intrathecal compared with intravenous: unexpectedly improved antinociceptive results as compared with intravenous injection
